Where two headings read alike, the source gives them in different places. Where a SMILES comes first, the peptide text is derived from it. [ ]: non-standard residue; d: D form. The star is where a group is joined. Bz = O=C(c1ccccc1)*
Assays:
[1] = test system: calcium-induced arrhythmias (2nd degree AV block); assay: Standard calcium-induced arrhythmia assay; type: in vivo, Male NMRI mice; conditions: mice, i.v. 3 min before CaCl2 infusion; (tarr(testcompound)−tarr(vehicle))×100/tarr(vehicle)
Description: Peptides suitable for administration to cardiac cells can be identified in an in vivo model of calcium-induced arrhythmias according to the model of Lynch et al. (1981) J Cardiovasc. Pharmacol. 3: 49-60. Mice (25-30 g) are anaesthetized with a neurolept anaesthetic combination and an i.v. cannula is inserted into the tail vein. A lead II ECG signal is recorded continuously by positioning a stainless steel ECG electrodes on the right forelimb and on the left hind limb. The ground electrode is placed on the right hind limb. The signal is amplified (×5.000-10.000) and filtered (0.1-150 Hz) via a Hugo Sachs Electronic model 689 ECG module. The analog signal is digitized via a 12 bit data acquisition board (Data Translation model DT321) and sampled at 1000 Hz using the Notocord HEM 3.1 software for Windows NT. After a 10-minute equilibration period, the test sample of peptide is injected into the tail vein. Mice pre-treated with buffer are tested as a measure of the control level in untreated animals. The injection volume is 100 μl in all experiments.
Infusion of CaCl2 (30 mg/ml, 0.1 ml/min≈100 mg/kg/min (calcium chloride-2-hydrate, Riedel-de Haën, Germany)) is started 3 min after i.v. administration of drug or vehicle. The time lag to onset of 2nd degree AV-block is determined as the time from the start of CaCl2 infusion until the first arrhythmic event occurs. An event of 2nd degree AV-block is defined as intermittent failure of the AV conduction characterised by a P-wave without the concomitant QRS complex.
Responses are expressed relative to the time until 2nd degree AV-block occurred in vehicle treated mice. The maximal effect of compounds (e.g., peptides, AAP, AAP10 or controls) is determined. […] Preferably, […], the peptides provide at least about 40% of the activity of AAP, for example at least about 50% of the activity of AAP, such as about 60% of the activity of AAP, for example at least about 70% of the activity of AAP, such as at least about 80% of the activity of AAP, for example at least about 90% of the activity of AAP, for example at least about substantially the same activity of AAP, such as about 110% of the activity of AAP, for example at least about 120% of the activity of AAP, such as at least about 130% of the activity of AAP, for example at least about 140% of the activity of AAP, such as about 150% of the activity of AAP, for example at least about 160% of the activity of AAP, such as at least about 170% of the activity of AAP, for example at least about 180% of the activity of AAP, preferably at least about 190% of the activity of AAP, more preferably at least about 200 or greater % of the activity of AAP (i.e., the peptides show time lags of approximately the same duration as induced by AAP).
The anti-arrhythmic effect of the dipeptides was determined in a model of calcium-induced arrhythmias according to the model of Lynch et al.. Male NMRI mice (25-30 g; Bomholdtgaard, LI. Skendsved, Denmark) were anaesthetised with a neurolept anaesthetic combination (Hypnorm® (fentanyl citrate 0.315 mg/ml and fuanisone 10 mg/ml)+midazolam (5 mg/ml)). Commercial solutions of Hypnorm® and midazolam were diluted 1:1 in distilled water, and one part diluted Hypnorm® was mixed with one part diluted midazolam. Anaesthesia was induced by s.c. administration of this solution in a dose of 50-75 μl/10 gram mouse.
An i.v. cannula was inserted into the tail vein. The lead II ECG signal was recorded continuously by positioning of stainless steel ECG electrodes on the right forelimb and on the left hind limb. The ground electrode was placed on the right hind limb. The signal was amplified (×5.000-10.000) and filtered (0.1-150 Hz) via a Hugo Sachs Electronic model 689 ECG module. The analogue signal was digitised via a 12-bit data acquisition board (Data Translation model DT321) and sampled at 1000 Hz using the Notocord HEM 3.1 software for Windows NT. […]

[2] = test system: Human primary osteoblasts; assay: Osteoblast activity (ALP assay); type: cell-based; conditions: cell lysate, stimulated 1×10^−13 to 1×10^−6 for the last 4 days, compared to vehicle treated control cultures
Description: Cells also can be measured for the presence of alkaline phosphatase activity to provide a general measure of osteoblast activity. In one aspect, cells are plated in 96-well plates at a concentration of 8000 cells/well (hOB) or 3000 cells/well (ROS) in 200 μl normal culture medium. On day 4 (or day 3 for ROS cells), cells are washed with 200 μl MEM, 0.1% BSA (Sigma, Cat.No. A-9418). Samples comprising a suitable medium (e.g., 200 μl MEM, 0.1% BSA) containing various concentrations of peptides, control, AAP or AAP10 are added to the cells, and culture is continued for about 4 days (2 days for ROS cells).
On about day 8 (preferably day 5 for ROS cells), cells are assayed for alkaline phosphatase using an Alkaline Phosphatase (ALP) assay such as is known in the art. ALP assays are generally colorimetric endpoint methods for measuring enzyme activity, and can be performed using an Alkaline Phosphatase Kit (Sigma, Cat.No. 104-LL). Preferably, cells are washed once with 200 μl PBS+Ca, Mg, 100 μl Alkaline Buffer Solution is added to each well and the cells are incubated at 37° C. for 10 minutes. 100 μl Substrate Solution is subsequently added to each well and the plate is incubated at 37° C. for 30 min. 100 μl 2.0 N NaOH is added to each well to stop the reaction. Absorbance is measured using a plate reader at 405 nm.
Human primary osteoblasts were obtained from bone marrow biopsies of the posterior iliac spine from voluntary donors. Cells were used at 6 weeks of culturing. Cells were cultured in 24-well plates in an 8 days process and stimulated with the test compounds in concentrations from 1×10^−13 to 1×10^−6 for the last 4 days of the experiment. Cell lysate was collected for determination of ALP activity. hOB cells from 10-15 donors were used for the experiments. For ALP measurements a commercially available kit (Alkaline Phosphatase Kit, Sigma-Aldrich Denmark A/S) was used. All determinations were performed according to the manufacturer's recommendations.
ALP was determined on cell lysate collected at termination of the experiment. Measurements were compared with and to vehicle treated control cultures.
Data are presented as means and standard deviations or medians and percentiles as appropriate. Two-way ANOVA is performed using Fisher's LSD test for post-hoc comparisons, using a 0.05 level of significance.

[3] = Oral bioavailability, pharmacokinetic screening (i.v./p.o. cross-over, LC/MS/MS); type: in vivo; conditions: male, rat, plasma, Sprague-Dawley rats
Excerpt: The water used for these experiments was of highest quality obtained from a reversed osmosis primary system in combination with a Milli-Q water secondary treatment system (Millipore, Bedford, Mass., USA). Methanol was super gradient quality obtained from Labscan Ltd. (Dublin, Ireland). Formic acid p.a. (98-100%) was obtained from Merck (Darmstadt, Germany). Heptafluorobuturicacid, HPLC grade wAs obtained from Pierce (Rockford, Ill., USA). EDTA stabilised plasma from rat (Sprague-Dawley) was obtained from Harlan Sera Lab Ltd. (Loughborough, UK). Blood samples were collected in potassium EDTA coated microtainers from BD Vacutainer Systems (Plymouth, UK). Sample preparation by ultra filtration was performed using Microcon centrifugal filter devices with a molecular weight cut off of 3000 obtained from Millipore (Bedford, Mass., USA).
The LC/MS/MS analysis was performed on a Waters Alliance 2790 HPLC instrument in combination with a Quattro Ultima mass spectrometer from Micromass (Manchester, UK). Both the LC and MS were controlled by MassLynx 3.5 software. The LC separations prior to MS/MS detection were performed on an XTerra MS C18 (2.0×50 mm), 3.5 μm particles, (Waters, Milford, Mass., USA).
Twelve male Sprague-Dawley rats (approx 350 g) were obtained from M&B (Denmark) and catheters were inserted into the femoral vein and artery during Hypnorm®-Dormicum® anaesthesia. After surgery, the rats were allowed to recover for five days before drug administration was initiated.
The dipeptides (Compound 22, Compound 21, Compound 23, Compound 96, Compound 95 and Compound 54) were obtained as the TFA salts and dissolved in PBS (2.6 mM KCl, 137 mM NaCl, 1.5 mM KH2PO4 and 8.2 mM Na2HPO4 adjusted to pH=7.4) to give concentrations of 500 μM. The dosing volumes were 1 mL/kg corresponding to doses of 500 nmol/kg, respectively. After each experiment the dosing solutions were diluted in 0.5% formic acid in water and analysed by LC/MS/MS for their content of drug substance. The concentrations of drug substance in the dosing solutions were calculated from the responses of standards in the range from 1 to 1000 nM.
The drug substances were administered to two animals as i.v. and p.o. bolus in a cross-over study design. The p.o. dose was administered to rats fasted for a 17 hours period prior to drug administration. The animals were allowed to rest for 48 hours in between drug administrations. After the first experiment the rats received a blood transfusion with heparin treated blood.
Prior to drug administration (5 min) the rats received 500 IU heparin as an i.v. bolus and a control blood sample was collected. After drug administration blood samples of approx. 250 μL were collected from the femoral artery at the following time points; before dose (B.D.), 5, 15, 30, 60, 120, 180 and 240 min after i.v. administration and at B.D., 10, 30, 50, 80, 120, 180, 240, and 300 min after p.o. administration. The blood samples were stored on ice until centrifugation for 5 min at 10.000×g (4° C.) and the plasma (100 μL) were transferred to 1.5 mL polypropylene tubes and stored at −20° C. until sample preparation and LC/MS/MS analysis.
The plasma samples were thawed on ice, and 100 μL plasma was mixed with 100 μL 1% (v/v) formic acid and transferred to microcon YM-3 filter units. The samples were then centrifuged for 1 hr at 8.300×g at room temperature. The filtrates were collected in 300 μL autosampler vials and stored at 4° C. until injection (40 μL) onto the LC column. The chromatography was performed at 50° C. using a linear gradient from 100% buffer A (0.1% formic acid in water) to 100% buffer B (0.1% formic acid in acetonitrile) in 4 min, followed by 3 min wash using buffer B and finally a reequilibration period for 7 min using buffer A. The detection of the drug substances were performed by MS/MS using argon as collision gas (1.3×10^−3 mbar). […]

[4] = oral, TFA salts in PBS, 500 nmol/kg i.v. and p.o. bolus, p.o. fasted 17 hours, dose normalised AUCpo/AUCiv, read-out: F (%) Mean (mean bioavailability)
[5] = oral administration 500 nmol/kg, read-out: bioavailability

bioavailability [3, 4]	bioavailability [3, 5]	Molecule	% response (time lag to onset of 2nd degree AV block relative to vehicle) [1]	ALP activity relative to vehicle control (ratio) [2]
–	–	H-Gly-Lys(4-cyanobenzoyl)-OH [Compound 3]	37.0%	–
29%	10 to 31%	COc1ccc(CNC(=O)C[C@@H](N)C(=O)N[C@@H](C)C(=O)O)cc1 [Compound 95, H-D-Asn(NH(4-methoxybenzyl))-Ala-OH]	0.3%	1.14
–	–	H-Gly-Lys(4-nitrobenzoyl)-OH [Compound 1]	52.0%	1.08
31%	10 to 31%	N[C@H](CCCCNC(=O)c1ccc([N+](=O)[O-])cc1)C(=O)NCC(=O)O [Compound 22, H-D-Lys(4-nitrobenzoyl)-Gly-OH]	52.0%	1.12
–	–	H-Lys(4-nitrobenzoyl)-Gly-OH [Compound 7]	40%	–
–	–	H-Asn(NH(4-methoxybenzyl))-D-Ala-OH [Compound 80]	33%	–
2.6%	2 to 8%	COc1ccc(C(=O)NCCCC[C@@H](N)C(=O)NCC(=O)O)cc1 [Compound 21, H-D-Lys(4-methoxybenzoyl)-Gly-OH]	55.0%	–
7.2%	2 to 8%	CC(C)(C)c1ccc(C(=O)NCCCC[C@@H](N)C(=O)NCC(=O)O)cc1 [Compound 54, H-D-Lys(4-t-butylbenzoyl)-Gly-OH]	61.3%	–
15%	10 to 31%	C[C@H](NC(=O)[C@H](N)CC(=O)NCc1ccc([N+](=O)[O-])cc1)C(=O)O [Compound 96, H-D-Asn(NH(4-nitrobenzyl))-Ala-OH]	54%	–
–	–	H-Gly-Lys(4-methoxybenzoyl)-OH [Compound 4]	69.0%	–

Molecule	bioavailability [3, 4]	bioavailability [3, 5]	% response (time lag to onset of 2nd degree AV block relative to vehicle) [1]	ALP activity relative to vehicle control (ratio) [2]
N[C@H](CCCCNC(=O)c1ccccc1)C(=O)NCC(=O)O [Compound 23, H-D-Lys(benzoyl)-Gly-OH] (H-[dK](Bz)-Gly-OH)	10%	10 to 31%	−8.0%	1.08

Source: patent publication US20060194947A1, “Peptide gap junction modulators” (priority 2002, published 2006)
